Here are results for 3 compounds from the NIST ThermoML archive (doi:10.1021/je500672d).

Numbers after ± are expanded uncertainties.

For the data set the following is noted: 298.15 K; 101.33 kPa; Liquid; Vibrating tube method.
In the case of `COP(=O)([O-])OC.Cn1cc[n+](C)c1` [1,3-dimethylimidazolium dimethylphosphate], the mass density is 1257.8 ± 1.4 kg/m3.

Regarding `CO` [methanol], the mass density stood at 786.4 ± 0.4 kg/m3.

On to `COC(C)=O` [methyl ethanoate], for which the mass density was found to be 927.7 ± 0.5 kg/m3.

By mass density is commonly meant mass per unit of volume.
